≈ marks a conversion by molar mass, not a printed value. Bounds are passed on as bounds.

From ChEMBL document CHEMBL1126978, “Assessment of the biological value of the 11-hydroxy group of the azalides” (1993) come the findings set out here.

Type in all cases: functional
The test system of assay [1] is Enterobacter cloacae. In words: Tested in vitro for antimicrobial activity against Enterobacter cloacae CL 4298; value ranges from 64->128 ug/mL.
Assay [2] has as its system Enterococcus faecalis. In words: Tested in vitro for antimicrobial activity against Enterococcus faecalis MB 5407; value ranges from 64-128 ug/mL.
In assay [3] the test system is Escherichia coli. The assay can be described thus: Tested in vitro for antimicrobial activity against Escherichia coli MB 2884; value ranges from 64->128 ug/mL.
Assay [4] deals with Haemophilus influenzae. In words: Tested in vitro for antimicrobial activity against Haemophilus influenzae MB 5363; value ranges from 32->128 ug/mL.
Assay [5] has as its system Klebsiella pneumoniae. The assay can be described thus: Tested in vitro for antimicrobial activity against Klebsiella pneumoniae MB 4005; value ranges from 64->128 ug/mL.
For assay [6], the system named is Staphylococcus aureus. In words: Tested in vitro for antimicrobial activity against Staphylococcus aureus MB 2865; value ranges from 16-64 ug/mL.
For assay [7], the system named is Streptococcus pyogenes. In words: Tested in vitro for antimicrobial activity against Streptococcus pyogenes MB 2874; value ranges from 1-4 ug/mL.
Assay [8] concerns Streptococcus pyogenes. The assay can be described thus: Tested in vitro for antimicrobial activity against constitutively macrolide resistant Streptococcus pyogenes MB 5403.
The test system of assay [9] is Streptococcus pyogenes. In words: Tested in vitro for antimicrobial activity against inducibly macrolide resistant Streptococcus pyogenes MB 5406.
The subject of assay [10] is Staphylococcus haemolyticus. The assay can be described thus: Tested in vitro for antimicrobial activity against Staphylococcus haemolyticus MB 5412; value ranges from 8-32 ug/mL.
Assay [11] concerns Enterobacter cloacae. In words: Tested in vitro for antimicrobial activity against Enterobacter cloacae CL 4298; value ranges from 2-4 ug/mL.
Assay [12] deals with Enterococcus faecalis. The assay can be described thus: Tested in vitro for antimicrobial activity against Enterococcus faecalis MB 5407; value ranges from 2-4 ug/mL.
The test system of assay [13] is Escherichia coli. The assay can be described thus: Tested in vitro for antimicrobial activity against Escherichia coli MB 2884; value ranges from 2-4 ug/mL.
Assay [14] concerns Haemophilus influenzae. The assay can be described thus: Tested in vitro for antimicrobial activity against Haemophilus influenzae MB 5363; value ranges from 2-4 ug/mL.
The test system of assay [15] is Klebsiella pneumoniae. In words: Tested in vitro for antimicrobial activity against Klebsiella pneumoniae MB 4005; value ranges from 2-4 ug/mL.
Assay [16] relates to Staphylococcus haemolyticus. The assay can be described thus: Tested in vitro for antimicrobial activity against Staphylococcus haemolyticus MB 5412; value ranges from 0.125-0.25 ug/mL.
The subject of assay [17] is Staphylococcus aureus. In words: Tested in vitro for antimicrobial activity against Staphylococcus aureus MB 2865; value ranges from 0.25-1 ug/mL.
The test system of assay [18] is Streptococcus pyogenes. The assay can be described thus: Tested in vitro for antimicrobial activity against Streptococcus pyogenes MB 2874; value ranges from 0.03-0.06 ug/mL.
In assay [19] the test system is Streptococcus pyogenes. The assay can be described thus: Tested in vitro for antimicrobial activity against inducibly macrolide resistant Streptococcus pyogenes MB 5406; value ranges from 8-16 ug/mL.
Assay [20] deals with Enterobacter cloacae. In words: Tested in vitro for antimicrobial activity against Enterobacter cloacae CL 4298; value ranges from 4-8 ug/mL.
Assay [21] concerns Escherichia coli. The assay can be described thus: Tested in vitro for antimicrobial activity against Escherichia coli MB 2884; value ranges from 8-16 ug/mL.
The subject of assay [22] is Enterococcus faecalis. In words: Tested in vitro for antimicrobial activity against Enterococcus faecalis MB 5407; value ranges from 4-8 ug/mL.
In assay [23] the test system is Haemophilus influenzae. The assay can be described thus: Tested in vitro for antimicrobial activity against Haemophilus influenzae MB 5363; value ranges from 4-8 ug/mL.
Assay [24] concerns Klebsiella pneumoniae. The assay can be described thus: Tested in vitro for antimicrobial activity against Klebsiella pneumoniae MB 4005.
Assay [25] has as its system Staphylococcus haemolyticus. The assay can be described thus: Tested in vitro for antimicrobial activity against Staphylococcus haemolyticus MB 5412; value ranges from 0.5-1 ug/mL.
Assay [26] concerns Staphylococcus aureus. In words: Tested in vitro for antimicrobial activity against Staphylococcus aureus MB 2865; value ranges from 2-4 ug/mL.
Assay [27] concerns Enterobacter cloacae. The assay can be described thus: Tested in vitro for antimicrobial activity against Enterobacter cloacae CL 4298.
The test system of assay [28] is Escherichia coli. In words: Tested in vitro for antimicrobial activity against Escherichia coli MB 2884.
The subject of assay [29] is Staphylococcus haemolyticus. The assay can be described thus: Tested in vitro for antimicrobial activity against Staphylococcus haemolyticus MB 5412; value ranges from 0.25-0.5 ug/mL.
Assay [30] relates to Staphylococcus aureus. In words: Tested in vitro for antimicrobial activity against Staphylococcus aureus MB 2865.
The test system of assay [31] is Streptococcus pyogenes. The assay can be described thus: Tested in vitro for antimicrobial activity against inducibly macrolide resistant Streptococcus pyogenes MB 5406; value ranges from 16-32 ug/mL.
The subject of assay [32] is Enterobacter cloacae. The assay can be described thus: Tested in vitro for antimicrobial activity against Enterobacter cloacae CL 4298; value ranges from 32-64 ug/mL.
Assay [33] has as its system Enterococcus faecalis. The assay can be described thus: Tested in vitro for antimicrobial activity against Enterococcus faecalis MB 5407; value ranges from 1-2 ug/mL.
For assay [34], the system named is Escherichia coli. The assay can be described thus: Tested in vitro for antimicrobial activity against Escherichia coli MB 2884; value ranges from 32-64 ug/mL.
For assay [35], the system named is Klebsiella pneumoniae. The assay can be described thus: Tested in vitro for antimicrobial activity against Klebsiella pneumoniae MB 4005; value ranges from 32-64 ug/mL.
Assay [36] has as its system Staphylococcus haemolyticus. In words: Tested in vitro for antimicrobial activity against Staphylococcus haemolyticus MB 5412.
Assay [37] concerns Staphylococcus aureus. In words: Tested in vitro for antimicrobial activity against Staphylococcus aureus MB 2865; value ranges from 0.25-0.5 ug/mL.
Assay [38] has as its system Haemophilus influenzae. In words: Tested in vitro for antimicrobial activity against Haemophilus influenzae MB 5363; value ranges from 1-4 ug/mL.
In assay [39] the test system is Klebsiella pneumoniae. The assay can be described thus: Tested in vitro for antimicrobial activity against Klebsiella pneumoniae MB 4005; value ranges from 1-2 ug/mL.
The test system of assay [40] is Staphylococcus aureus. In words: Tested in vitro for antimicrobial activity against Staphylococcus aureus MB 2865; value ranges from 0.5-1 ug/mL.
Assay [41] relates to Enterobacter cloacae. The assay can be described thus: Tested in vitro for antimicrobial activity against Enterobacter cloacae CL 4298; value ranges from 0.5-2 ug/mL.
Assay [42] concerns Escherichia coli. The assay can be described thus: Tested in vitro for antimicrobial activity against Escherichia coli MB 2884; value ranges from 1-2 ug/mL.

With `CC[C@H]1OC(=O)[C@H](C)[C@@H](O[C@H]2C[C@@](C)(OC)[C@@H](O)[C@H](C)O2)[C@H](C)[C@@H](O[C@@H]2O[C@H](C)C[C@H](N(C)C)[C@H]2O)[C@](C)(O)C[C@@H](C)/N=C2\O[C@]1(C)C=C2C`, the MIC in assay [1] turned out to be 64 µg/mL (≈ 89.8 µM); in assay [2], 64 µg/mL (≈ 89.8 µM); in assay [3] it was 64 µg/mL (≈ 89.8 µM); in assay [4], 32 µg/mL (≈ 44.9 µM); in assay [5] it was 64 µg/mL (≈ 89.8 µM); in [6], 16 µg/mL (≈ 22.4 µM). Also, the MIC in assay [7] was 1 µg/mL (≈ 1.4 µM); in assay [8], greater than 128 µg/mL; in assay [9], greater than 128 µg/mL; in assay [10], 8 µg/mL (≈ 11.2 µM).
As for `CC[C@H]1OC(=O)[C@H](C)[C@@H](O[C@H]2C[C@@](C)(OC)[C@@H](O)[C@H](C)O2)[C@H](C)[C@@H](O[C@@H]2O[C@H](C)C[C@H](N(C)C)[C@H]2O)[C@](C)(O)C[C@@H](C)N(C)C[C@@H](C)C[C@]1(C)O`, the MIC in assay [11] worked out at 2 µg/mL (≈ 2.73 µM); in [12], 2 µg/mL (≈ 2.73 µM); in assay [13] it was 2 µg/mL (≈ 2.73 µM); in assay [14], 2 µg/mL (≈ 2.73 µM); in assay [15], 2 µg/mL (≈ 2.73 µM); in assay [16] it was 0.125 µg/mL (≈ 0.171 µM). In addition, the MIC was 0.25 µg/mL (≈ 0.341 µM) in [17], 0.03 µg/mL (≈ 0.0409 µM) in assay [18], greater than 128 µg/mL in assay [8] and 8 µg/mL (≈ 10.9 µM) in assay [19].
With `CC[C@H]1OC(=O)[C@H](C)[C@@H](O[C@H]2C[C@@](C)(OC)[C@@H](O)[C@H](C)O2)[C@H](C)[C@@H](O[C@@H]2O[C@H](C)C[C@H](N(C)C)[C@H]2O)[C@](C)(O)C[C@@H](C)N(C)C/C(C)=C/[C@]1(C)O`, the MIC in assay [20] turned out to be 4 µg/mL (≈ 5.47 µM); in assay [21], 8 µg/mL (≈ 10.9 µM); in assay [22], 4 µg/mL (≈ 5.47 µM); in [23], 4 µg/mL (≈ 5.47 µM); in assay [24], 8 µg/mL (≈ 10.9 µM); in assay [25] it was 0.5 µg/mL (≈ 0.684 µM). Further, the MIC was 2 µg/mL (≈ 2.74 µM) in assay [26], 0.03 µg/mL (≈ 0.041 µM) in [18], greater than 128 µg/mL in assay [8] and 8 µg/mL (≈ 10.9 µM) in assay [19].
`CC[C@H]1OC(=O)[C@H](C)[C@@H](O[C@H]2C[C@@](C)(OC)[C@@H](O)[C@H](C)O2)[C@H](C)[C@@H](O[C@@H]2O[C@H](C)C[C@H](N(C)C)[C@H]2O)[C@](C)(O)C[C@@H](C)N(C)C[C@H](C)C[C@]1(C)O`: the MIC in assay [27] worked out at 2 µg/mL (≈ 2.73 µM); in assay [22], 4 µg/mL (≈ 5.46 µM); in assay [28] it was 4 µg/mL (≈ 5.46 µM); in [23], 4 µg/mL (≈ 5.46 µM); in assay [15] it was 2 µg/mL (≈ 2.73 µM); in assay [29], 0.25 µg/mL (≈ 0.341 µM). Besides, the MIC was 2 µg/mL (≈ 2.73 µM) in [30], 0.03 µg/mL (≈ 0.0409 µM) in assay [18], greater than 128 µg/mL in [8] and 16 µg/mL (≈ 21.8 µM) in [31].
With `CC[C@H]1OC(=O)[C@H](C)[C@@H](O[C@H]2C[C@@](C)(OC)[C@@H](O)[C@H](C)O2)[C@H](C)[C@@H](O[C@@H]2O[C@H](C)C[C@H](N(C)C)[C@H]2O)[C@](C)(O)C[C@@H](C)C(=O)[C@H](C)[C@@H](O)[C@]1(C)O` [ERYTHROMYCIN], the MIC in assay [32] amounted to 32 µg/mL (≈ 43.6 µM); in assay [33], 1 µg/mL (≈ 1.36 µM); in [34], 32 µg/mL (≈ 43.6 µM); in [23] it was 4 µg/mL (≈ 5.45 µM); in assay [35], 32 µg/mL (≈ 43.6 µM); in assay [36], 0.125 µg/mL (≈ 0.17 µM). The MIC in assay [37] was 0.25 µg/mL (≈ 0.341 µM); in assay [18] it was 0.03 µg/mL (≈ 0.0409 µM); in [8], greater than 128 µg/mL; in [9] it was 32 µg/mL (≈ 43.6 µM).
In the case of `CC[C@H]1OC(=O)[C@H](C)[C@@H](O[C@H]2C[C@@](C)(OC)[C@@H](O)[C@H](C)O2)[C@H](C)[C@@H](O[C@@H]2O[C@H](C)C[C@H](N(C)C)[C@H]2O)[C@](C)(O)C[C@@H](C)N(C)C[C@H](C)[C@@H](O)[C@]1(C)O` [L-701677], the MIC in [12] was determined as 2 µg/mL (≈ 2.67 µM); in assay [38] it was 1 µg/mL (≈ 1.34 µM); in assay [39], 1 µg/mL (≈ 1.34 µM); in [16], 0.125 µg/mL (≈ 0.167 µM); in [40] it was 0.5 µg/mL (≈ 0.668 µM); in [18], 0.03 µg/mL (≈ 0.0401 µM). For the same compound, the MIC in [8] is greater than 128 µg/mL; in [19] it was 8 µg/mL (≈ 10.7 µM); in [41], 0.5 µg/mL (≈ 0.668 µM); in assay [42], 1 µg/mL (≈ 1.34 µM).
